# Experimental data as given in PMC10060569 (Frontiers in Pharmacology, 2023).
# Molecular target: T1, S15V-rP2X3R (Rattus norvegicus, UniProt P49654, S15V)
# T1 construct: expressed in transfected cells; host or cells: Xenopus laevis oocytes (cRNA injection)
# T1 sequence (P49654 1-397 S15V): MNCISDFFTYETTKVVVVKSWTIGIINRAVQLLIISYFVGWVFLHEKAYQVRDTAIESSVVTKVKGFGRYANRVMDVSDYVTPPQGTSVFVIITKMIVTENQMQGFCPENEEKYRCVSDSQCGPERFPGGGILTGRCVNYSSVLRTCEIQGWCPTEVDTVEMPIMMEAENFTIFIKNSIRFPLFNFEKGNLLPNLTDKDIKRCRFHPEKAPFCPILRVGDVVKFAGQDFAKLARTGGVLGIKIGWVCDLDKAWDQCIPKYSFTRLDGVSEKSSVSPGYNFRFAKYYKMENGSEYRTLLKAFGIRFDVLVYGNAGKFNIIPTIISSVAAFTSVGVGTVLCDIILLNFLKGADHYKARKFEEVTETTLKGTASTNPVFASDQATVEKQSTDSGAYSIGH
# Test: TEVC of ATP-induced currents, S15V-rP2X3R expressed in X. laevis oocytes (peak current protocol)
# Type: cell-based
# Conditions: 1 µM ATP
# From the text: Oocyte expression plasmids encoding the wild-type (wt) and N-terminally His-tagged (His-) fusion constructs of the hP2X2R, hP2X3R, hP2X4R, and hP2X7R, and the mutant His-^20RMVL^23KVIV^23S^26N-hP2X1R, S^15V-rP2X3R, and His-S^15V-hP2X3R were the same as used in previous research ([Hausmann et al., 2006]; [Wolf et al., 2011]; [Hausmann et al., 2014]; [Obrecht et al., 2019]). In most cases, the N-terminal His-tagged variants of P2XRs were used here and in the previous studies to allow biochemical analyses on affinity-purified proteins using the same constructs. Although this was not required for the present study, it allows for better comparability with our previous studies. […]
# Ion currents mediated by P2X receptors were evoked by the indicated concentration of ATP or α,β-meATP and were recorded 1 or 2 days after cRNA injection at ambient temperature at a holding potential of −60 mV by two-electrode voltage clamp (TEVC) as previously described ([Hausmann et al., 2006]). […]
compound,measurement,setting,value
"O=C(O)c1ccccc1Nc1cccc(C(F)(F)F)c1 [Flufenamic acid, flufenamic acid]",IC50,X. laevis oocytes,264 µM
same,inhibitory effect at 100 µM FFA,100 µM FFA,25%
